Experimental data reported in US20240279240A1, “HETEROCYCLIC DERIVATIVES AS JANUS KINASE INHIBITORS” (CHIESI FARMACEUTICI S.P.A., priority 2021, published 2024).

Columns and labels:
JAK 1 = JAK 1 (Homo sapiens, UniProt P23458); assay: Biochemical potency on JAK1, TR-FRET LANCE Ultra kinase assay (examples 1-99); settings: ATP at Km (20 μM), read-out: JAK1 inhibitory activity (pIC50 class) (converted)
Description: (§1) The objective of this study was to assess the capability of compounds to inhibit all 4 JAK isoforms activity in a cell-free environment. Assay for JAK 1, JAK 2, JAK 3 and TYK2 were performed by Time-resolved fluorescence resonance energy transfer (TR-FRET) technology. It consists in the interaction of two labelled binding partners detected by the energy transfer from an excited donor to an acceptor dye and measurement of light emission by the acceptor dye. LANCE Ultra kinase assay was used. In presence of JAK 1, JAK 2, JAK 3 and TYK2 kinases and ATP (corresponding to Km), the ULight peptide substrate (LANCE Ulight-JAK-1 (Tyr1023) Peptide, Perkin Elmer, TRF0121) is phosphorylated. It is then captured by Eu-anti-phospho-substrate antibody (LANCE Eu-W1024 Anti-phosphotyrosine (PT66), Perkin Elmer, AD0069), which bring the Eu-chelate donor and ULight acceptor dyes into close proximity. Upon excitation at 320 nm, the Eu-chelate transfers its energy to the ULight dye, resulting in a fluorescent light emission at 665 nm.
(§2) Serial dilutions of compounds in pure DMSO are prepared from 10 mM DMSO stock solutions. Compounds were tested in 384-well plate for 11 consecutive 5-fold dilutions starting from 20 μM highest concentration (20 μM-[…]). 200 nL of compound were transferred from mother plate to test plate by using Mosquito (TTP labtech). Assay was performed in 384-well Perkin Elmer test plate in 20 μL assay volume (kinase reaction) and 40 μL total volume (stopping reagent and antibody detection reagents). In 10 μL of substrate solution (peptide+ATP) 30/50/20/10 nM of peptide and 20/0.7/0.2/12 μM of ATP were added for JAK 1, JAK 2, JAK 3 and TYK2 respectively. 10 μL of enzyme solution was added to kinase reaction at these concentrations: 0.15/0.083/0.025/0.144 ng/μL of JAK 1, JAK 2, JAK 3 and TYK2 respectively. After shaking and 1.5 h of incubation at r.t., 20 μL of Stop (10 μL EDTA) and Detection mixture (10 μL Europium-anti-phospho antibody, final: 0.5 nM) were added. Reading was performed after 1 h of incubation on a EnVision 2104 reader (Perkin Elmer).
(§3) Calculation of IC50 data, curves and QC analysis was performed by using Excel tool and GraphPadPrism software, v9. Briefly, individual concentration-effect curves are generated by plotting the logarithm of the tested concentration of tested compounds (X) vs. corresponding percent inhibition values (Y) using least squares (ordinary) fit. Best fit IC50 values are calculated using Log(inhibitor) vs. normalized response—Variable slope equation, where Y=100/(1+10^((Log IC50−X)*HillSlope)). QC criteria parameters (Z′, S:B, R2, HillSlope) were checked for every IC50 curve. Calculation of IC50 data, curves and QC analysis were made using Excel tools and GraphPadPrism software. QC criteria parameters: Z′≥0.5, Hill Slope range 0.5 to 5, S:B>2.

JAK 2 = JAK 2 (Homo sapiens, UniProt O60674); assay: Biochemical potency on JAK2, TR-FRET LANCE Ultra kinase assay (examples 1-99); settings: ATP at Km (0.7 μM), read-out: JAK2 inhibitory activity (pIC50 class) (converted)
Description: as §1, §2, §3

JAK 3 = molecular target: T1, JAK 3 (Homo sapiens, UniProt P52333); assay: Biochemical potency on JAK3, TR-FRET LANCE Ultra kinase assay (examples 1-99); settings: ATP at Km (0.2 μM), read-out: JAK3 inhibitory activity (pIC50 class) (converted)
T1 sequence (P52333 1-1124): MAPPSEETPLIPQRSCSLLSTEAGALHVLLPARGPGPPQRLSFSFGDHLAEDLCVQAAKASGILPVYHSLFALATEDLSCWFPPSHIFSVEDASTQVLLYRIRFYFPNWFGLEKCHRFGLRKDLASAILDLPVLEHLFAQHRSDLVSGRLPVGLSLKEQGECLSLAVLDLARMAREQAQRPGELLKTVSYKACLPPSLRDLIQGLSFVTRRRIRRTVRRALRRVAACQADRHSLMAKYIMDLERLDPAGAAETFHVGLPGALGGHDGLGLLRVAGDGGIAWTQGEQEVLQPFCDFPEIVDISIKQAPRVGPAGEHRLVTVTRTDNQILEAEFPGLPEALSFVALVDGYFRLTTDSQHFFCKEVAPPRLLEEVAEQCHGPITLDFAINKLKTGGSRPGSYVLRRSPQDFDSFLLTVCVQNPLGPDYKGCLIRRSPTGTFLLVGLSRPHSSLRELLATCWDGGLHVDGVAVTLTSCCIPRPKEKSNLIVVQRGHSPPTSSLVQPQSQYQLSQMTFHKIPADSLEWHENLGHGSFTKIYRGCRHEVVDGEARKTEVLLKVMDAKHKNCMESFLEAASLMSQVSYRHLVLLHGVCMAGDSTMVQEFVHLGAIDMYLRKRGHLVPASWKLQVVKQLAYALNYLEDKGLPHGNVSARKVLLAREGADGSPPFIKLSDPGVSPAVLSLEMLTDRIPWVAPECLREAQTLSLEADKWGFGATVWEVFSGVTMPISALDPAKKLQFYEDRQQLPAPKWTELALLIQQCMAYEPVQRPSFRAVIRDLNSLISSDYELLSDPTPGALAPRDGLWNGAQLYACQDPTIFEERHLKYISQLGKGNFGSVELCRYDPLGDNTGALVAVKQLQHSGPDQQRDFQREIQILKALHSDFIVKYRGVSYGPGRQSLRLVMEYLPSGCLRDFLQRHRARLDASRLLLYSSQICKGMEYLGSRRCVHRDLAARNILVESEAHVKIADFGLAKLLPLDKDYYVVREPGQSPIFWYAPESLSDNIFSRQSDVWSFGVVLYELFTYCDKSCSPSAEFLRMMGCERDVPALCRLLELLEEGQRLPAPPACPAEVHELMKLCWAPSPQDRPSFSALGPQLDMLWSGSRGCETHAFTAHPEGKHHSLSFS
Description: as §1, §2, §3

TYK2 = TYK2 (Homo sapiens, UniProt P29597); assay: Biochemical potency on Tyk2, TR-FRET LANCE Ultra kinase assay (examples 1-99); settings: ATP at Km (12 μM), read-out: Tyk2 inhibitory activity (pIC50 class) (converted)
Description: as §1, §2, §3

Sequence of JAK 2 (O60674 whole entry): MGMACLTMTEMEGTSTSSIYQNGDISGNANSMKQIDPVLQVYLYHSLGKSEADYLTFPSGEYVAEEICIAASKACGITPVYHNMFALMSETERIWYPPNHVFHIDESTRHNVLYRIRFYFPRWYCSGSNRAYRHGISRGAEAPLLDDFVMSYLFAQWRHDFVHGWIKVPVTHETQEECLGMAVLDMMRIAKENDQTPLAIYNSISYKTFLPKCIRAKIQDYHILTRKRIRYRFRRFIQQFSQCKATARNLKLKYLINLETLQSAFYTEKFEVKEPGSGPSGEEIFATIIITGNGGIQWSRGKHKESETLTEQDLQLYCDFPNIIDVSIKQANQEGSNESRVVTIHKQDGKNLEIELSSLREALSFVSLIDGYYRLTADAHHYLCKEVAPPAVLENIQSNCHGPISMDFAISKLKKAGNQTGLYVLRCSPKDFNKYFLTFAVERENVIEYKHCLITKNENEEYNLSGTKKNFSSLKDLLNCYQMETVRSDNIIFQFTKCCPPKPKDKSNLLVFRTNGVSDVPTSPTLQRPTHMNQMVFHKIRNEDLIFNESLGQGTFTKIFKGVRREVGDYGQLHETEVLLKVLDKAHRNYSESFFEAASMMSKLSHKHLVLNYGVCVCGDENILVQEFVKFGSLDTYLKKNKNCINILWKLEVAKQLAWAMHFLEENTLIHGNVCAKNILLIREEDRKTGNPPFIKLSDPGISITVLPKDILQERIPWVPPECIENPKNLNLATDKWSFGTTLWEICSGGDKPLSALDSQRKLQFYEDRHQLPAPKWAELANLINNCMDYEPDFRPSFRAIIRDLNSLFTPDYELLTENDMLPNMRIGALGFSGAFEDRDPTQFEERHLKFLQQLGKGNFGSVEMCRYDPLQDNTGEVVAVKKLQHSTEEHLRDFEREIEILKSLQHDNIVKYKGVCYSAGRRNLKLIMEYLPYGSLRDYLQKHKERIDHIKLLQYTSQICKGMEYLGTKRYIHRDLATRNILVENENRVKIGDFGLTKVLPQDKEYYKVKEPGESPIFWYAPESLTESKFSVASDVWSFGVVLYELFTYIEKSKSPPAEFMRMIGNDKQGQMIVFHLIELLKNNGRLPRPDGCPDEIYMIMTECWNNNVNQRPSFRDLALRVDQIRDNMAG
Sequence of JAK 1 (P23458 whole entry, canonical isoform): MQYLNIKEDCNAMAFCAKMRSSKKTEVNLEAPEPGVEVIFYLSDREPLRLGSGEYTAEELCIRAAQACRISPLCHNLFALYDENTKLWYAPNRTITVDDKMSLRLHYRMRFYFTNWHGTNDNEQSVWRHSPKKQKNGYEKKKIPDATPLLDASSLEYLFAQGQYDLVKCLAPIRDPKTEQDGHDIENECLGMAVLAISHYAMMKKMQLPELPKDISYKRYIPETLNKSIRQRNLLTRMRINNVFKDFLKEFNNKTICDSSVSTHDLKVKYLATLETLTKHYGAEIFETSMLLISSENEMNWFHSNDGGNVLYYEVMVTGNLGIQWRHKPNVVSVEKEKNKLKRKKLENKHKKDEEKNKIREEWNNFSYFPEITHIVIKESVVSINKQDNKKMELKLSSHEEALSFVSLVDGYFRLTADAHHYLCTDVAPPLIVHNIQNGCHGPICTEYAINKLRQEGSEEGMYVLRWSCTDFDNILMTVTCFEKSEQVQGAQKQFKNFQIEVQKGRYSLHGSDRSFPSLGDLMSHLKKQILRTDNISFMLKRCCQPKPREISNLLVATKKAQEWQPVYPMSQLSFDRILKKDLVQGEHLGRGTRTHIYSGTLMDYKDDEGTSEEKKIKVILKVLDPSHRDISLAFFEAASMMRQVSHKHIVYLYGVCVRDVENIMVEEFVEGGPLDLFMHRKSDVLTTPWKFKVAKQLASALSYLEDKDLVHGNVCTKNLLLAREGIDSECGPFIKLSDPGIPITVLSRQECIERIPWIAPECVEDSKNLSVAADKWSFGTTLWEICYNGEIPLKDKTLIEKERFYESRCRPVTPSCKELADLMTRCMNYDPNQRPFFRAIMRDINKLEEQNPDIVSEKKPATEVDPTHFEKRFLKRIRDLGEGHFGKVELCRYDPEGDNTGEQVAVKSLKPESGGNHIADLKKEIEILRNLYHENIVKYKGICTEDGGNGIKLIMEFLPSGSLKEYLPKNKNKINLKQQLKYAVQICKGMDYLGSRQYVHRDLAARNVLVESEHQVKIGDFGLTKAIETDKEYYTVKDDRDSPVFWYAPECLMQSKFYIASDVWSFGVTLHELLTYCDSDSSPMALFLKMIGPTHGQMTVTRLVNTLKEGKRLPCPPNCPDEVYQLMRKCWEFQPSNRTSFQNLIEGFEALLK
Sequence of TYK2 (P29597 whole entry): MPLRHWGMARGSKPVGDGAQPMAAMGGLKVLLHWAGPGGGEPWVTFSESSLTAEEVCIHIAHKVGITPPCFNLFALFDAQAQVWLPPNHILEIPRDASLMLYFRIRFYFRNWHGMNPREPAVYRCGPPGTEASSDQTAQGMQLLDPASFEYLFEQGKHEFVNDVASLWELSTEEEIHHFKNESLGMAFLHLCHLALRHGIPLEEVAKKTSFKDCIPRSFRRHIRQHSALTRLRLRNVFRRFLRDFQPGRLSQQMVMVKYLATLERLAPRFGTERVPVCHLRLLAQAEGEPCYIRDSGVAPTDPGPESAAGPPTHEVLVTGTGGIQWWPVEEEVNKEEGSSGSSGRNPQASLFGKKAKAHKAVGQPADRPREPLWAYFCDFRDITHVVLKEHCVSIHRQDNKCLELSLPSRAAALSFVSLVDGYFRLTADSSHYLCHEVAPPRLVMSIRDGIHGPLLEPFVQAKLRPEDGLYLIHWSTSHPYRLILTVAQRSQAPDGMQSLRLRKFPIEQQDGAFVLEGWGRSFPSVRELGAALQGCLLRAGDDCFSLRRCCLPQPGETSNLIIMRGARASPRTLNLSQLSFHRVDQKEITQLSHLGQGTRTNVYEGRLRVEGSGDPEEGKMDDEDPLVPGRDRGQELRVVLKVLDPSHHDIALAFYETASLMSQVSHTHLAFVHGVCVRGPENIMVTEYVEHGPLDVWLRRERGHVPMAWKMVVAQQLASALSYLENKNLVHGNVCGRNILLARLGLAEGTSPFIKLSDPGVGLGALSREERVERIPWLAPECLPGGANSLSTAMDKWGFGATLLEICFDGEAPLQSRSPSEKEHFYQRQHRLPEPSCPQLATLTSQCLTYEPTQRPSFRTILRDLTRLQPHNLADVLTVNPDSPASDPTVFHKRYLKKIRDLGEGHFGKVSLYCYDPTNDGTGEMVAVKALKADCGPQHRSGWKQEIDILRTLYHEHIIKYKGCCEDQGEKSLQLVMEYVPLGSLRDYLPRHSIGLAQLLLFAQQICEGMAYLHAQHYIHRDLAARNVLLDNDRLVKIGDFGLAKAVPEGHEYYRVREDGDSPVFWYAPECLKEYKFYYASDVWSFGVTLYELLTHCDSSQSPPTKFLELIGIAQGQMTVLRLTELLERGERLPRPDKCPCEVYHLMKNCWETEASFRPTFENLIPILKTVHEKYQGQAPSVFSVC

| Compound | IC50 (JAK 1) [nM] | IC50 (JAK 2) [nM] | IC50 (JAK 3) [nM] | IC50 (TYK2) [nM] |
| --- | --- | --- | --- | --- |
| COc1ccc(Cl)cc1-n1ncc2c(N(C)C)nc(-c3cnn4cccnc34)cc21 [Example 51, 1-(5-chloro-2-methoxyphenyl)-N,N-dimethyl-6-(pyrazolo[1,5-a]pyrimidin-3-yl)-1H-pyrazolo[4,3-c]pyridin-4-amine] | 5.01 to 50.1 | 5.01 to 50.1 | 5.01 to 50.1 | > 50.1 |
| COc1ccc(C(F)F)cc1-n1nc(C)c2cnc(-c3cnn4cccnc34)cc21 [Example 3, 1-(5-(difluoromethyl)-2-methoxyphenyl)-3-methyl-6-(pyrazolo[1,5-a]pyrimidin-3-yl)-1H-pyrazolo[4,3-c]pyridine] | 5.01 to 50.1 | ≤ 5.01 | 5.01 to 50.1 | 5.01 to 50.1 |
| COc1ccc(S(=O)(=O)CCCO)cc1-n1nc(C)c2cnc(-c3cnn4cccnc34)cc21 [Example 9, 3-((4-methoxy-3-(3-methyl-6-(pyrazolo[1,5-a]pyrimidin-3-yl)-1H-pyrazolo[4,3-c]pyridin-1-yl)phenyl)sulfonyl)propan-1-ol] | 5.01 to 50.1 | ≤ 5.01 | 5.01 to 50.1 | > 50.1 |
| COc1ccc(OC)c(-n2nc(C)c3cnc(-c4cnn5cccnc45)cc32)c1 [Example 8, 1-(2,5-dimethoxyphenyl)-3-methyl-6-(pyrazolo[1,5-a]pyrimidin-3-yl)-1H-pyrazolo[4,3-c]pyridine] | 5.01 to 50.1 | ≤ 5.01 | 5.01 to 50.1 | > 50.1 |
| CNCc1nn(-c2cc(Cl)ccc2OC(F)F)c2cc(-c3cnn4cccnc34)ncc12 [Example 31, 1-(1-(5-chloro-2-(difluoromethoxy)phenyl)-6-(pyrazolo[1,5-a]pyrimidin-3-yl)-1H-pyrazolo[4,3-c]pyridin-3-yl)-N-methylmethanamine] | 5.01 to 50.1 | 5.01 to 50.1 | 5.01 to 50.1 | > 50.1 |
| COc1ccc(Cl)cc1-n1nc(N(C)C)c2cnc(-c3cnn4cccnc34)cc21 [Example 42, 1-(5-chloro-2-methoxyphenyl)-N,N-dimethyl-6-(pyrazolo[1,5-a]pyrimidin-3-yl)-1H-pyrazolo[4,3-c]pyridin-3-amine] | 5.01 to 50.1 | 5.01 to 50.1 | 5.01 to 50.1 | 5.01 to 50.1 |
| Cc1nn(-c2cc(S(=O)(=O)CCCN(C)C)ccc2OC(F)F)c2cc(-c3cnn4cccnc34)ncc12 [Example 21, 3-((4-(difluoromethoxy)-3-(3-methyl-6-(pyrazolo[1,5-a]pyrimidin-3-yl)-1H-pyrazolo[4,3-c]pyridin-1-yl)phenyl)sulfonyl)-N,N-dimethylpropan-1-amine] | 5.01 to 50.1 | 5.01 to 50.1 | 5.01 to 50.1 | > 50.1 |
| CNS(=O)(=O)c1ccc(OC)c(-n2nc(C)c3cnc(-c4cnn5cccnc45)cc32)c1 [Example 14, 4-methoxy-N-methyl-3-(3-methyl-6-(pyrazolo[1,5-a]pyrimidin-3-yl)-1H-pyrazolo[4,3-c]pyridin-1-yl)benzenesulfonamide] | 5.01 to 50.1 | ≤ 5.01 | ≤ 5.01 | 5.01 to 50.1 |
| COCCS(=O)(=O)c1ccc(OC(F)F)c(-n2nc(C)c3cnc(-c4cnn5cccnc45)cc32)c1 [Example 20, 1-(2-(difluoromethoxy)-5-((2-methoxyethyl)sulfonyl)phenyl)-3-methyl-6-(pyrazolo[1,5-a]pyrimidin-3-yl)-1H-pyrazolo[4,3-c]pyridine] | 5.01 to 50.1 | ≤ 5.01 | ≤ 5.01 | 5.01 to 50.1 |

Next, values leading:

| IC50 (JAK 1) [nM] | IC50 (JAK 2) [nM] | IC50 (JAK 3) [nM] | IC50 (TYK2) [nM] | Compound |
| --- | --- | --- | --- | --- |
| 5.01 to 50.1 | ≤ 5.01 | ≤ 5.01 | 5.01 to 50.1 | COCCSc1ccc(OC(F)F)c(-n2nc(C)c3cnc(Nc4ncc[nH]c4=O)cc32)c1 [Example 93, 3-((1-(2-(difluoromethoxy)-5-((2-methoxyethyl)thio)phenyl)-3-methyl-1H-pyrazolo[4,3-c]pyridin-6-yl)amino)pyrazin-2(1H)-one] |
| > 50.1 | 5.01 to 50.1 | 5.01 to 50.1 | > 50.1 | Cc1nn(-c2cc(SC3CCNCC3)ccc2OC(F)F)c2cc(-c3cnn4cccnc34)ncc12 [Example 74, 1-(2-(difluoromethoxy)-5-(piperidin-4-ylthio)phenyl)-3-methyl-6-(pyrazolo[1,5-a]pyrimidin-3-yl)-1H-pyrazolo[4,3-c]pyridine] |
| 5.01 to 50.1 | 5.01 to 50.1 | 5.01 to 50.1 | 5.01 to 50.1 | COc1ccc(F)cc1-n1nc(C(=O)NCCCN(C)C)c2cnc(Nc3ncc[nH]c3=O)cc21 [Example 96, N-(3-(dimethylamino)propyl)-1-(5-fluoro-2-methoxyphenyl)-6-((3-oxo-3,4-dihydropyrazin-2-yl)amino)-1H-pyrazolo[4,3-c]pyridine-3-carboxamide] |
| ≤ 5.01 | ≤ 5.01 | ≤ 5.01 | 5.01 to 50.1 | COc1cc(O)c(F)cc1-n1nc(C)c2cnc(-c3cnn4cccnc34)cc21 [Example 58, 2-fluoro-5-methoxy-4-(3-methyl-6-(pyrazolo[1,5-a]pyrimidin-3-yl)-1H-pyrazolo[4,3-c]pyridin-1-yl)phenol] |
| 5.01 to 50.1 | 5.01 to 50.1 | 5.01 to 50.1 | > 50.1 | Cc1nn(-c2cc(SC3CC3)ccc2OC(F)F)c2cc(-c3cnn4cccnc34)ncc12 [Example 71, 1-(5-(cyclopropylthio)-2-(difluoromethoxy)phenyl)-3-methyl-6-(pyrazolo[1,5-a]pyrimidin-3-yl)-1H-pyrazolo[4,3-c]pyridine] |
| 5.01 to 50.1 | 5.01 to 50.1 | 5.01 to 50.1 | 5.01 to 50.1 | COc1ccc(Cl)cc1-n1nc(C(=O)N[C@H]2C[C@H](N(C)C)C2)c2cnc(-c3cnn4cccnc34)cc21 [Example 80, 1-(5-chloro-2-methoxyphenyl)-N-((1r,3r)-3-(dimethylamino)cyclobutyl)-6-(pyrazolo[1,5-a]pyrimidin-3-yl)-1H-pyrazolo[4,3-c]pyridine-3-carboxamide] |
